Measurements: ChEMBL document CHEMBL1135293, “Amino acid derived sulfonamide hydroxamates as inhibitors of procollagen C-proteinase. Part 2: Solid-phase optimization of side chains” (Bioorg Med Chem Lett, 2002)

target: T1, Bone morphogenetic protein 1 (Homo sapiens, UniProt P13497); assay: Inhibitory activity against procollagen C-proteinase (PCP).
T1 sequence (P13497 whole entry): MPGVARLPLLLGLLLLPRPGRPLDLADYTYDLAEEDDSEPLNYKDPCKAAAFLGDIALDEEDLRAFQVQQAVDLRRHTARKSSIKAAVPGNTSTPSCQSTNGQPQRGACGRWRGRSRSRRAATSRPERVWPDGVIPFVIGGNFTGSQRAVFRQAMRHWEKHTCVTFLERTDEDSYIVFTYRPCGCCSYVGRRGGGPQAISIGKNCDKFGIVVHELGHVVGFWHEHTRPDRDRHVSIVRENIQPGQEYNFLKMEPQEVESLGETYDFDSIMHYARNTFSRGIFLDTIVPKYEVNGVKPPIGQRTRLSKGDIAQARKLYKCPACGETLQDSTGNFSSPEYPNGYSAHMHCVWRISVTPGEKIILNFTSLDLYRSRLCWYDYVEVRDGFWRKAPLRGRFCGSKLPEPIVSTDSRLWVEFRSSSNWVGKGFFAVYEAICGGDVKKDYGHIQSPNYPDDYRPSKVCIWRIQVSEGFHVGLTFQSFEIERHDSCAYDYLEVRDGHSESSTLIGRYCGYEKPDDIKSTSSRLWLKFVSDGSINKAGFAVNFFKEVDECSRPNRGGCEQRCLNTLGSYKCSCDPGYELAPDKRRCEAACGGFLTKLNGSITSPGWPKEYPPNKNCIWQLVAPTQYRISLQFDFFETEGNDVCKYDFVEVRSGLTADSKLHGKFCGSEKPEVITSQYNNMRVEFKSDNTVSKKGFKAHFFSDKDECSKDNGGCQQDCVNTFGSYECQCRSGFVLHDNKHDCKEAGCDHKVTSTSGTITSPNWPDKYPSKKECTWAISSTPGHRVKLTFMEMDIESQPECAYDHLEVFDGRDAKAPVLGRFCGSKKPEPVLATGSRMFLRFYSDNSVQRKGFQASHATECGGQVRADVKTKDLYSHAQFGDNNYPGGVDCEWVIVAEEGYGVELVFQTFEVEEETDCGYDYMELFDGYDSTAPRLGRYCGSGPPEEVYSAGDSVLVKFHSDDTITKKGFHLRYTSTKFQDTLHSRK

| Compound | IC50 [nM] |
| --- | --- |
| COc1ccc(S(=O)(=O)N(Cc2ccc3c(c2)OCO3)[C@H](Cc2ccc(Br)s2)C(=O)O)cc1 | 670 |
| COc1ccc(S(=O)(=O)N(Cc2ccc(F)c(F)c2)[C@H](Cc2cccs2)C(=O)NO)cc1 | 80 |
| COC(=O)c1ccc(CN([C@H](Cc2cccs2)C(=O)NO)S(=O)(=O)c2ccc(OC)cc2)cc1 | 110 |
| C=Cc1ccc(CN([C@H](Cc2cccs2)C(=O)NO)S(=O)(=O)c2ccc(OC)cc2)cc1 | 190 |
| COc1ccc(S(=O)(=O)N(Cc2ccc(Cl)cc2Cl)[C@H](Cc2cccs2)C(=O)NO)cc1 | 860 |
| COc1ccc(S(=O)(=O)N(Cc2cccc(F)c2F)[C@H](Cc2cccs2)C(=O)NO)cc1 | 100 |
| COc1ccc(S(=O)(=O)N(Cc2ccc(-c3cnns3)cc2)[C@H](Cc2cccs2)C(=O)NO)cc1 | 440 |
| COc1ccc(S(=O)(=O)N(Cc2ccc(C)cc2)[C@H](Cc2cccs2)C(=O)NO)cc1 | 110 |
| CCCCN(C)C(=N)NCCCC[C@H](C(=O)O)N(Cc1ccc2c(c1)OCO2)S(=O)(=O)c1ccc(OC)cc1 | 200 |
| COc1ccc(S(=O)(=O)N(Cc2ccc3c(c2)OCO3)[C@@H](C(=O)O)C2CCN(C(=O)OC(C)(C)C)CC2)cc1 | 26 |
| COc1ccc(S(=O)(=O)N(Cc2cccc(Cl)c2)[C@H](Cc2cccs2)C(=O)NO)cc1 | 390 |
| COc1ccc(S(=O)(=O)N(Cc2cccc(Br)c2)[C@H](Cc2cccs2)C(=O)O)cc1 | 230 |
| COc1ccc(S(=O)(=O)N(Cc2ccc3c(c2)OCO3)[C@H](Cc2cccs2)C(=O)O)cc1 | 24 |
| COc1ccc(S(=O)(=O)N(Cc2cccc(I)c2)[C@H](C)C(=O)O)cc1 | 280 |
| CCN(CC)C(=N)NCCC[C@H](C(=O)O)N(Cc1ccc2c(c1)OCO2)S(=O)(=O)c1ccc(OC)cc1 | 28 |
| COc1ccc(S(=O)(=O)N(Cc2ccc3c(c2)OCO3)[C@H](COCc2ccccc2)C(=O)O)cc1 | 380 |
| COc1ccc(S(=O)(=O)N(Cc2cc(C)on2)[C@H](Cc2cccs2)C(=O)O)cc1 | 120 |

| Compound | IC50 [nM] |
| --- | --- |
| COc1ccc(S(=O)(=O)N(Cc2ccc3c(c2)OCO3)[C@H](CCC(=O)OC2CCCCC2)C(=O)O)cc1 | 470 |
| COc1ccc(S(=O)(=O)N(Cc2ccc(I)cc2)[C@H](Cc2cccs2)C(=O)NO)cc1 | 360 |
| COC(=O)c1ccc(CN([C@H](Cc2cccs2)C(=O)O)S(=O)(=O)c2ccc(OC)cc2)cc1 | 210 |
| C#CC[C@H](C(=O)O)N(Cc1ccc2c(c1)OCO2)S(=O)(=O)c1ccc(OC)cc1 | 10 |
| COc1ccc(S(=O)(=O)N(Cc2ccc(OC)c(C)c2C)[C@H](C)C(=O)O)cc1 | 200 |
| COc1ccc(S(=O)(=O)N(Cc2ccc(Br)cc2F)[C@H](C)C(=O)O)cc1 | 490 |
| C=CCOc1ccc2ccc(CN([C@H](Cc3cccs3)C(=O)NO)S(=O)(=O)c3ccc(OC)cc3)cc2c1 | 290 |
| COc1ccc(S(=O)(=O)N(Cc2ccc3c(c2)OCO3)[C@H](Cc2ccco2)C(=O)O)cc1 | 470 |
| COc1ccc(S(=O)(=O)N(Cc2ccc3c(c2)OCO3)[C@H](Cc2ccncc2)C(=O)O)cc1 | 592 |
| COc1ccc(CSC[C@H](C(=O)O)N(Cc2ccc3c(c2)OCO3)S(=O)(=O)c2ccc(OC)cc2)cc1 | 250 |
| COc1ccc(S(=O)(=O)N(Cc2ccc(OC)c(C)c2)[C@H](Cc2cccs2)C(=O)NO)cc1 | 490 |
| COc1ccc(S(=O)(=O)N(Cc2ccc(Cl)c(Cl)c2)[C@H](Cc2cccs2)C(=O)NO)cc1 | 440 |
| COc1ccc(S(=O)(=O)N(Cc2cccc(C)c2[N+](=O)[O-])[C@H](C)C(=O)O)cc1 | 380 |
| COc1ccc(S(=O)(=O)N(CCn2cccc2)[C@H](Cc2cccs2)C(=O)NO)cc1 | 610 |
| COc1ccc(S(=O)(=O)N(Cc2cccc(C)c2F)[C@H](Cc2cccs2)C(=O)NO)cc1 | 150 |
| COc1ccc(S(=O)(=O)N(Cc2cc(C(F)(F)F)cc(C(F)(F)F)c2)[C@H](Cc2cccs2)C(=O)NO)cc1 | 590 |

target: T1, Bone morphogenetic protein 1; assay: Inhibitory activity against Procollagen C-Proteinase (PCP)

| Compound | IC50 [nM] |
| --- | --- |
| COc1ccc(S(=O)(=O)N(Cc2ccc(C)c([N+](=O)[O-])c2)[C@H](Cc2cccs2)C(=O)NO)cc1 | 60 |
| COc1ccc(S(=O)(=O)N(Cc2ccc3c(c2)OCO3)[C@H](Cc2ccc([N+](=O)[O-])cc2)C(=O)NO)cc1 | 32 |
| COc1ccc(S(=O)(=O)N(Cc2sccc2Oc2ccccc2)[C@H](C)C(=O)NO)cc1 | 40 |
| COc1ccc(CSC[C@H](C(=O)NO)N(Cc2ccc3c(c2)OCO3)S(=O)(=O)c2ccc(OC)cc2)cc1 | 32 |
| COc1ccc(S(=O)(=O)N(Cc2ccc3c(c2)OCO3)[C@H](Cc2cncn2C(c2ccccc2)(c2ccccc2)c2ccccc2)C(=O)NO)cc1 | 36 |
| COc1ccc(S(=O)(=O)N(Cc2ccc(OC)c(C)c2C)[C@H](C)C(=O)NO)cc1 | 220 |
| COc1ccc(S(=O)(=O)N(Cc2ccccc2C(F)(F)F)[C@H](C)C(=O)NO)cc1 | 6 |
| COc1ccc(S(=O)(=O)N(Cc2ccc(C(C)C)cc2)[C@H](C)C(=O)NO)cc1 | 230 |
| COc1ccc(S(=O)(=O)N(Cc2sc3scc(C)c3c2C)[C@H](C)C(=O)NO)cc1 | 60 |
| COc1ccc(S(=O)(=O)N(Cc2ccc3c(c2)OCO3)[C@H](CCCNC(=O)OC(C)(C)C)C(=O)NO)cc1 | 52 |
| COc1ccc(S(=O)(=O)N(CCn2cccc2)[C@H](C)C(=O)NO)cc1 | 170 |
| COc1ccc(S(=O)(=O)N(Cc2ccc3c(c2)OCO3)[C@@H](C(=O)NO)C(=O)C(N)CNC(=O)OCc2ccccc2)cc1 (stereo partly drawn) | 14 |
| COc1ccc(S(=O)(=O)N(Cc2ccc3c(c2)OCO3)[C@@H](C(=O)NO)C(=O)C(N)CNC(=O)OCC2c3ccccc3-c3ccccc32)cc1 (stereo partly drawn) | 0.024 |
| COc1ccc(S(=O)(=O)N(Cc2ccc(F)c(F)c2)[C@H](C)C(=O)NO)cc1 | 76 |
| COc1ccc(S(=O)(=O)N(Cc2ccc3c(c2)OCO3)[C@@H](C(=O)NO)C(C)C)cc1 | 53 |
| COc1ccc(S(=O)(=O)N(Cc2cccc3ccccc23)[C@H](C)C(=O)NO)cc1 | 90 |
| COc1ccc(S(=O)(=O)N(Cc2ccc(Br)cc2)[C@H](Cc2cccs2)C(=O)NO)cc1 | 70 |
| COc1ccc(S(=O)(=O)N(Cc2ccc3c(c2)OCO3)[C@H](Cc2cn(C)cn2)C(=O)NO)cc1 | 50 |
| COc1ccc(S(=O)(=O)N(Cc2cc(F)cc(F)c2)[C@H](C)C(=O)NO)cc1 | 140 |
| COc1ccc(S(=O)(=O)N(Cc2ccc3c(c2)OCO3)[C@H](CSc2ccc(C)cc2)C(=O)NO)cc1 | 45 |

| Compound | IC50 [nM] |
| --- | --- |
| COc1ccc(C[C@H](C(=O)NO)N(Cc2ccc3c(c2)OCO3)S(=O)(=O)c2ccc(OC)cc2)cc1 | 40 |
| COc1ccc(S(=O)(=O)N(Cc2ccc(SC)cc2)[C@H](C)C(=O)NO)cc1 | 80 |
| COc1ccc(S(=O)(=O)N(Cc2cccc(C)c2[N+](=O)[O-])[C@H](C)C(=O)NO)cc1 | 120 |
| COc1ccc(S(=O)(=O)N(Cc2ccc3c(c2)OCO3)[C@@H](C(=O)NO)C(=O)C(N)CNC(=O)OCc2ccccc2Br)cc1 (stereo partly drawn) | 18 |
| COc1ccc(S(=O)(=O)N(Cc2ccc3cc(C)ccc3c2)[C@H](C)C(=O)NO)cc1 | 220 |
| COc1ccc(S(=O)(=O)N(Cc2cccc(Br)c2)[C@H](C)C(=O)NO)cc1 | 93 |
| C=CCOC(=O)NCC(N)C(=O)[C@H](C(=O)NO)N(Cc1ccc2c(c1)OCO2)S(=O)(=O)c1ccc(OC)cc1 (stereo partly drawn) | 23 |
| COc1ccc(S(=O)(=O)N(Cc2ccc3c(c2)OCO3)[C@H](Cc2cncn2Cc2ccccc2)C(=O)NO)cc1 | 27 |
| COc1ccc(S(=O)(=O)N(Cc2ccc(Cl)c(Cl)c2)[C@H](C)C(=O)NO)cc1 | 120 |
| COc1ccc(S(=O)(=O)N(Cc2ccc(Cl)c([N+](=O)[O-])c2)[C@H](C)C(=O)NO)cc1 | 30 |
| COc1ccc(S(=O)(=O)N(Cc2ccc3c(c2)OCO3)[C@H](COC(C)(C)C)C(=O)NO)cc1 | 23 |
| C=CCOc1ccc2ccc(CN([C@H](C)C(=O)NO)S(=O)(=O)c3ccc(OC)cc3)cc2c1 | 130 |
| COc1ccc(S(=O)(=O)N(Cc2ccc3c(c2)OCO3)[C@H](CCCCNC(=O)OCc2ccccc2)C(=O)NO)cc1 | 16 |
| COc1ccc(S(=O)(=O)N(Cc2ccc3c(c2)OCO3)[C@@H](C(=O)NO)C(=O)C(N)CNC(=O)OCc2ccccc2Cl)cc1 (stereo partly drawn) | 4.6 |
| COc1ccc(S(=O)(=O)N(Cc2ccc(Br)cc2)[C@H](C)C(=O)NO)cc1 | 37 |
| COc1ccc(S(=O)(=O)N(Cc2cc(C)on2)[C@H](C)C(=O)NO)cc1 | 230 |
| COc1ccc(S(=O)(=O)N(Cc2cnc(Cl)s2)[C@H](C)C(=O)NO)cc1 | 180 |
| COc1ccc(S(=O)(=O)N(Cc2cc(C(F)(F)F)cc(C(F)(F)F)c2)[C@H](C)C(=O)NO)cc1 | 220 |
| COc1ccc(S(=O)(=O)N(Cc2ccc3c(c2)OCO3)[C@H](Cc2cccs2)C(=O)NO)cc1 (stereo in doubt; 2) | 0.2 |
| COc1ccc(S(=O)(=O)N(Cc2ccc3c(c2)OCO3)[C@H](Cc2cccs2)C(=O)NO)cc1 (stereo in doubt; 41) | 0.2 |
